Converted amounts (≈) assume the structure as drawn.
Tests used:
[1] = test system: patients with hypertriglyceridemia; conditions: cited from earlier work
male LDLR−/− mice = experiment: Compound effects in diet-induced hyperlipidemic LDLR-/- mice (plasma triglyceride and cholesterol); assay type: in vivo, mouse
Experimental: Young adult male mice (˜8 weeks of age) were purchased from conventional vendors and group housed (3-4/cage) with ad libitum access to chow and water, in a temperature- and light-controlled vivarium (lights on at 06:00 hours, off at 18:00 hours). Compounds were administered daily by oral gavage in the morning (˜08:00 hrs), in a final volume of 0.1 ml/mouse, with the first dose of compound delivered on study day 0. Compounds were solubilized by gentle mixing in PEG400:Tween80 (4:1) for at least several hours and usually overnight prior to initiation of dosing. When necessary, solutions were sonicated briefly to ensure complete compound solubilization.
Blood samples (˜0.15 ml/mouse) were obtained from the retro-orbital sinus of non-fasted isoflurane-anesthetized mice, 3 hours after drug dosing. Blood samples were collected into heparin-coated tubes, and plasma was recovered following centrifugation. Plasma total cholesterol and triglyceride levels were determined by […] enzymatic commercially available assays that were adapted to 96-well plate formats. Plasma HDL cholesterol (HDL-C) was determined by removing non-HDL-C from the plasma with a precipitating reagent, and then determining the plasma cholesterol levels in the remaining HDL-C fraction. Plasma triglycerides concentrations, determined from a blood sample obtained in the 24 hours prior to the first dose, were used to group the mice such that the pre-study triglyceride levels between groups were equivalent prior to initiation of the dosing regimen.
Male LDLR^−/− mice (JAX Mice, Bar Harbor, Me.) consumed a purified “Western” diet (˜21% fat, 0.02% cholesterol w/w) ad libitum, for two weeks prior to and during treatment with Compound C daily by oral gavage at a dose of 10 mg/kg/day for 7 days (n=9-10/group).
In a separate study utilizing the same mouse model ([…]) subjected to the dietary lead-in for 8 weeks, LDLR^−/− mice were treated with Compound B at a dose of 10 mg/kg/day for 6 weeks.

physchem = conditions: pH 7.4, aqueous buffer, kinetic from dmso stock
[2] = target: T1, human farnesoid X receptor (Homo sapiens, UniProt Q96RI1); experiment: FXR in vitro assays (farnesoid X receptor/ECREx7 co-transfection assay, TR-FRET assay), Table I; assay type: cell-based; conditions: for EC50: agonist activity, one or more of the in vitro assays, read-out: EC50; for Emax: read-out: % Efficacy
T1 construct: CMX-farnesoid X receptor (full length human farnesoid X receptor); expressed in transfected cells; host or cells: CV-1 African Green Monkey Kidney cells
T1 sequence (Q96RI1 1-472 isoform Q96RI1-2): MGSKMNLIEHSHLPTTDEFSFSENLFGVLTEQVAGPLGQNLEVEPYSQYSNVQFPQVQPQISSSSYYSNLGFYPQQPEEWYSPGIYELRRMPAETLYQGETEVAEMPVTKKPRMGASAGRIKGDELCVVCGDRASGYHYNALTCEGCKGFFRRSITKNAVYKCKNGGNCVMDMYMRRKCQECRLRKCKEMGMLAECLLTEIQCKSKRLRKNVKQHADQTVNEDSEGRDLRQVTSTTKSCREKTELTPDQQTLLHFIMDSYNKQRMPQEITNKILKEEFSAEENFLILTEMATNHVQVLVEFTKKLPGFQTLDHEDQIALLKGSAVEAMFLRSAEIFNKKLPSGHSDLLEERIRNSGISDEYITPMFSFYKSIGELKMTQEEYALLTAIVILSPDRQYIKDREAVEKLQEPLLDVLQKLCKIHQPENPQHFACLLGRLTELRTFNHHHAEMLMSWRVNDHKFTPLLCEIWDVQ
T1 sequence (P19793 1-462 partner): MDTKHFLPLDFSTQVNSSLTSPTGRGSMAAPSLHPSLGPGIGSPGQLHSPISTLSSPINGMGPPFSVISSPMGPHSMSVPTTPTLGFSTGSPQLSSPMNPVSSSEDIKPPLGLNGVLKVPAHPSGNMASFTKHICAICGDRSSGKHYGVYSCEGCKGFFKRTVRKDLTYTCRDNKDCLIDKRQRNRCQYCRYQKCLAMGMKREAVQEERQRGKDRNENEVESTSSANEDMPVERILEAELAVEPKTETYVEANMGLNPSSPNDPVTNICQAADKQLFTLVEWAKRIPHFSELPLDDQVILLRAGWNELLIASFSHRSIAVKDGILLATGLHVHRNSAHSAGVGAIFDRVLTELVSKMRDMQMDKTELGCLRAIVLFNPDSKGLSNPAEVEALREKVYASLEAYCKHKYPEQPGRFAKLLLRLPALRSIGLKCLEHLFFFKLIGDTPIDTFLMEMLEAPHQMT
Procedure, shortened: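 CV-1 monkey kidney cells transfected for an FXR/ECREx7 luciferase co-transfection reporter; luciferase read 18-20 h later in lysates. 8-point dose-response at ½-log spacing, 4 wells per point; EC50/IC50 from four-parameter Hill fit, averaged over at least 3 independent experiments.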

[3] = Western diet 8 weeks lead-in, 10 mg/kg/day for 6 weeks

| SMILES | solubility kinetic at 1.5 h (physchem) [µM] | EC50 [2] [nM] | Emax [2] [%] | further results |
| --- | --- | --- | --- | --- |
| C[C@H](CCC(=O)O)[C@H]1CC[C@H]2[C@@H]3[C@H](O)C[C@@H]4C[C@H](O)CC[C@]4(C)[C@H]3CC[C@]12C [CDCA, chenodeoxycholic acid] |  |  |  | plasma triglyceride levels [1]: significantly lowers |
| CCOC(=O)C1=CN(C(=O)c2ccc(F)c(F)c2)CC(C)(C)c2c1[nH]c1ccccc21 [Compound B, Ethyl 3-(3,4-difluorobenzoyl)-1,1-dimethyl-1,2,3,6-tetrahydro-azepino[4,5-b]indole-5-carboxylate] |  |  |  | plasma cholesterol concentrations (male LDLR−/− mice; [3]): lowered; plasma triglyceride concentrations (male LDLR−/− mice; [3]): lowered |
| CC(C)OC(=O)C1=CN(C(=O)c2ccc(F)c(F)c2)CC(C)(C)c2c1[nH]c1ccccc21 [Compound C, isopropyl 3-(3,4-difluorobenzoyl)-1,1-dimethyl-1,2,3,6-tetrahydroazepino[4,5-b]indole-5-carboxylate] |  |  |  | plasma triglyceride concentrations (male LDLR−/− mice; Western diet 2 weeks lead-in, 10 mg/kg/day oral gavage, study day 7): reduced plasma triglyceride concentrations to the level observed prior to introduction of the high-fat chow; lowering of plasma total cholesterol levels (male LDLR−/− mice; Western diet 2 weeks lead-in, 10 mg/kg/day oral gavage, study day 7, p<0.05 vs. vehicle): ~40%; plasma lipid profiles (male LDLR−/− mice; daily dosing throughout the 6 weeks of study, continued Western diet): sustained normalization |
| CC(C)OC(=O)C1=CN(C(=O)c2ccc(C(F)(F)F)c(F)c2F)CC(C)(C)c2c1[nH]c1ccccc21 [Example 138, 1-methylethyl 3-{[2,3-difluoro-4-(trifluoromethyl)phenyl]car-bonyl}-1,1-dimethyl-1,2,3,6-tetrahydroazepino[4,5-b]indole-5-carboxylate] | 0.1 to 1 (≈ 0.0506 to 0.506 µg/mL) | 10 to 100 | > 100 |  |
| CC(C)OC(=O)C1=CN(C(=O)c2cccc(O)c2)CC(C)(C)c2c1[nH]c1ccccc21 [Example 139, 1-methylethyl 3-[(3-hydroxyphenyl)carbonyl]-1,1-dimethyl-1,2,3,6-tetrahydroazepino[4,5-b]indole-5-carboxylate] | 1 to 10 (≈ 0.418 to 4.18 µg/mL) | 10 to 100 | > 100 |  |
| CC(C)OC(=O)C1=CN(C(=O)c2cccc(OCCN(C)C)c2)CC(C)(C)c2c1[nH]c1ccccc21 [Example 140, 1-methylethyl 3-[(3-{[2-(dimethylamino)ethyl]oxy}phenyl)carbonyl]-1,1-dimethyl-1,2,3,6-tetrahydroazepino[4,5-b]indole-5-carboxylate] | > 10 |  | > 100 |  |
| CC(=O)N1CCN(Cc2cccc(C(=O)N3C=C(C(=O)OC(C)C)c4[nH]c5ccccc5c4C(C)(C)C3)c2)CC1 [Example 146, 1-methylethyl 3-({3-[(4-acetylpiperazin-1-yl)methyl]phenyl}carbonyl)-1,1-dimethyl-1,2,3,6-tetrahydroazepino[4,5-b]indole-5-carboxylate] | 1 to 10 (≈ 0.543 to 5.43 µg/mL) | 100 to 1000 | > 100 |  |
| CC1(C)CN(C(=O)c2ccc(F)c(F)c2)C=C(C(=O)OC[C@@H](O)CO)c2[nH]c3ccccc3c21 [Example 171, (2S)-2,3-dihydroxypropyl-3-[(3,4-difluorophenyl)carbonyl]-1,1-dimethyl-1,2,3,6-tetrahydroazepino[4,5-b]indole-5-carboxylate] | > 10 | 10 to 100 | > 100 |  |
| CC(=O)N1CCCN(Cc2cccc(C(=O)N3C=C(C(=O)OC(C)C)c4[nH]c5ccccc5c4C(C)(C)C3)c2)CC1 [Example 177, 1-methylethyl 3-({3-[(4-acetyl-1,4-diazepan-1-yl)methyl]phenyl}carbonyl)-1,1-dimethyl-1,2,3,6-tetrahydroazepino[4,5-b]indole-5-carboxylate] | 1 to 10 (≈ 0.557 to 5.57 µg/mL) | 100 to 1000 | > 100 |  |
| CCNC(=O)N1CCN(Cc2cccc(C(=O)N3C=C(C(=O)OC(C)C)c4[nH]c5ccccc5c4C(C)(C)C3)c2)CC1 [Example 185, 1-methylethyl 3-{[3-({4-[(ethylamino)carbonyl]piper-azin-1-yl}methyl)phenyl]carbonyl}-1,1-dimethyl-1,2,3,6-tetrahydroazepino[4,5-b]indole-5-carboxylate] | 1 to 10 (≈ 0.572 to 5.72 µg/mL) | 100 to 1000 | > 100 |  |
| CC(CO)OC(=O)C1=CN(C(=O)c2ccc(F)c(F)c2)CC(C)(C)c2c1[nH]c1ccccc21 (centres unmarked) [Example 193, 2-hydroxy-1-methylethyl 3-[(3,4-difluorophenyl)carbonyl]-1,1-dimethyl-1,2,3,6-tetrahydroazepino[4,5-b]indole-5-carboxylate] | 1 to 10 (≈ 0.454 to 4.54 µg/mL) | 10 to 100 | > 100 |  |
| CC1(C)CN(C(=O)c2ccc(F)c(F)c2)C=C(C(=O)OCCO)c2[nH]c3ccccc3c21 [Example 196, 2-hydroxyethyl 3-[(3,4-difluorophenyl)carbonyl]-1,1-dimethyl-1,2,3,6-tetrahydroazepino[4,5-b]indole-5-carboxylate] | 1 to 10 (≈ 0.44 to 4.4 µg/mL) | 10 to 100 | > 100 |  |

From patent US20090203577A1 (EXELIXIS, INC., priority 2005, published 2009)
